Experiments:
[1] = system: plasma eicosanoids; experiment: Plasma 20-HETE and other eicosanoids in MC38 tumor mice (LC/MS/MS); type: in vivo, mouse; conditions: 3 weeks; for Plasma 20-HETE levels / Plasma levels of EETs/DHETs, 5-HETE, 8-HETE, 11-HETE, 15-HETE: rofecoxib 50 mg/l, HET0016 5 mg/kg/day i.p. given with rofecoxib, FIG. 6A
Description: After 3 weeks of different treatments, MC38 tumor mice were anesthetized with 2% isoflurane delivered by an anesthesia apparatus. About 0.6 ml of venous blood was collected from mice using a 1-ml syringe containing sodium citrate. The samples were centrifuged at 2,400×g for 15 min to obtain platelet-free plasma. To stabilize eicosanoids in plasma samples, 10 μl combinations of antioxidants (EDTA (0.2 mg/l), butylated hydroxytoluene (0.2 mg/l), and triphenyphosphine (2 mg/l)) were added to each plasma sample. The plasma samples were stored at −80° C. until LC/MS/MS analysis. Plasma samples were spiked with 10 ng of 15(S)-HETE-d8, applied to preconditioned SEP Pak C18 cartridges (100 mg adsorbent, Waters), and washed with water followed by hexane. Eicosanoids were eluted with 500 μl of ethyl acetate-hexane (3:1). The eluate was dried under nitrogen and reconstituted in methanol: 25 mM aqueous ammonium acetate (7:3). The extracted and reconstituted sample was subjected to HPLC (Shimadzu Prominence XR system) on a Max-RP C18 column (2×150 mm, 3 μu, Phenomenex) isocratically eluted with methanol:13 mM aqueous ammonium acetate (8:2) at a flow rate of 0.4 ml/min. The eluent was monitored for 20-HETE, EETs (5,6-EET, 8,9-EET, 11,12-EET, 14,15-EET), DHETs (5,6-DHET, 8,9-DHET, 11,12-DHET, 14,15-DHET), 5-HETE, 8-HETE, 11-HETE, 15-HETE, PGJ2, PGE2, TXB2, and 15keto-PGE2 by mass spectrometer (QTRAP5500, ABSCIEX) in the negative ion mode using Multiple Reaction Monitoring under optimized conditions. 15(S)-HETE-d8 was used as the internal standard for recovery and quantitation. The concentrations of eicosanoids were determined by comparing the ratio of ion intensity of each eicosanoid versus that of 15(S)-HETE-d8, as described previously (Chen, et al., Prostaglandins Other Lipid Mediat 104-105:42-48 (2013); Maddipati, et al., Prostaglandins Other Lipid Mediat 94:59-72 (2011)).

[2] = system: MC38 cells; experiment: MC38 cell growth by counting cell numbers; type: cell-based, mouse; conditions: single agent 100 nM to 10 μM, 48 h, serum-free medium + EGF 200 ng/ml; FIG. 3A/3B
Description: For cell growth experiments, cells were seeded onto 6-well plates at a density of 2.5×10^5 cells/well. […] After 48 h of treatment, cells were collected using 0.25% trypsin-EDTA and counted using a hemocytometer.

[3] = system: 20-HETE production in MC38 cells; experiment: 20-HETE production in cultured MC38 cells (LC/MS/MS); type: cell-based, mouse; conditions: HET0016 1 μM vs vehicle; FIG. 1C
Description: (§1) MC38 cells were maintained in complete medium consisting of DMEM supplemented with 10% heat-inactivated FBS, […] streptomycin, and 100 U/ml penicillin in a humidified incubator at 37° C. with 5% CO2. Sub-confluent cultured cells were harvested by washing T-75 flasks two times with Ca^2+- and Mg^2+-free Earl's balanced salts, followed by 2 min incubation with 0.25% trypsin-EDTA (Life Technologies, Grand Island, N.Y.) at 37° C. A human cerebral microvascular endothelial cell line (HCMECL) was used in the studies (University of Georgia, Athens, Ga.). Primary rat brain microvascular endothelial cells (RBMEC) were prepared as described previously (Prakash, et al., Diabetes 61:97 1533-1542 (2012)). HCMECL and RBMEC were maintained in MCDB-131 complete medium (VEC Technologies, Rensselaer, N.Y.).
(§2) MC38 cells were collected using 0.25% trypsin-EDTA. After centrifugation, a cell pallet was re-suspended in 300 μl of PBS. […] The concentrations of 20-HETE in media and cell lysates were determined by Liquid Chromatography—Tandem Mass Spectrometry (LC/MS/MS) using 15(S)-HETE-d8 as an internal standard as described previously (Chen, et al., Prostaglandins Other Lipid Mediat 104-105:42-48 (2013)). […] The concentrations of PGE2 in media and cell lysates were determined by an ELISA kit (Cayman Chemical, Ann Arbor, Mich.) according to the manufacturer's instructions.

[4] = system: MC38 cells; experiment: MC38 cell proliferation by BrdU ELISA assay; type: cell-based, mouse; conditions: 48 h
Description: MC38 cells were seeded at a density of 5×10^3 cells/well in 10% FBS/DMEM in 96-well plates. […] BrdU ELISA assay was done using an ELISA kit (CycLex Co., Nagano, Japan). Briefly, 3 h before assay, BrdU (10 μM final concentration) was added to the 96-well plates containing MC38 cells given different incubation conditions. After 3 h of incubation, the culture medium was removed, and fixed with Fixing/Denaturing solution (200 μl/well) at room temperature for 30 min. After removing Fixing/Denaturing solution, plates were incubated with monoclonal anti-BrdU antibody (50 μl/well) at room temperature for 1 h. Plates were washed five times with Wash buffer (200 μl/well), then incubated with the secondary antibody (50 μl/well) at room temperature for 1 h. After removing the secondary antibody and doing a second wash procedure, plates were incubated with Substrate Reagent (50 μl/well) at room temperature for 15 min in the dark. The reaction was then stopped by adding Stop Solution (50 μl/well). The absorbance in each well was measured using a Tecan GENios Plus microplate reader at dual wavelengths of 450/540 nm.

[5] = system: subcutaneous MC38 tumors; experiment: Tumor growth in MC38 colon tumor-bearing C57BL/6J mice; type: in vivo, mouse; conditions: HET0016 5 or 10 mg/kg/day i.p.; rofecoxib 50 mg/l in drinking water; combination compared with rofecoxib alone; FIG. 5
Description: 8-week-old male C57BL/6J mice were subcutaneously injected with MC38 cells (1.4×10^6 cells/mouse) to induce colon tumor. […] All treatments were done for 21 days. Rofecoxib (50 mg/l) was suspended in drinking water containing 1% (vol/vol) PEG 400 (Sigma-Aldrich) and 0.5% (wt/vol) 2-hydroxypropyl-β-cyclodextrin (Sigma-Aldrich). The formula and dose of rofecoxib were prepared according to a previous publication (Liu, et al., Proc Natl Acad Sci USA 107: 17017-17022 (2010)). Tumor growth rates were monitored by measuring tumor volume with a sliding caliper on day 9 or day 18 after cell-implantation. The volumes of tumors were calculated from the major dimension (L) and minor dimension (S), using the equation: tumor volume=L×(S)2/2 as described previously (Konson, et al., Cancer Gene Ther 11: 830-840 (2004)).

[6] = system: B6 mice subjected to ischemic stroke; experiment: Ischemic stroke in B6 mice supplemented with 20-OH PGE2; type: in vivo, mouse; conditions: 20-OH PGE2 250 ng/h via osmotic pump, 7 days, vs vehicle
Description: B6 mice were divided into two groups: one supplemented with 20-OH PGE2 (250 ng/h in an osmotic pump) and one given vehicle. After one week of treatment, the mice were subjected to ischemic stroke.
Although 20-OH PGE2 elicits beneficial protective effects in brain endothelial cells under OGD/Rep, the precise role of 20-OH PGE2 in ischemic stroke is still to be defined. To determine the effects of 20-OH PGE2 supplementation on stroke damage, B6 mice were treated with 20-OH PGE2 (Cayman) (administered via an osmotic pump (Alzet) at a dose of 250 ng/h) or vehicle for 7 days. The effects of 20-OH PGE2 on infarct size and neurological deficit after ischemic stroke were examined.

[7] = system: Cyp4a; experiment: Cyp4a expression in liver and kidney of MC38 tumor mice (Western blot); type: in vivo, mouse; conditions: 3-week rofecoxib treatment, FIG. 6C
[8] = Water intake and body weight of treated mice; type: in vivo, mouse; conditions: rofecoxib 50 mg/l in drinking water, n=5
Description: In a complementary experiment, the water intake and body weight of mice treated with water, vehicle, and rofecoxib (50 mg/l) was determined. Neither vehicle (3.02±0.17 vs. 3.16±0.16 ml/24 h/mouse, n=5) nor rofecoxib (3.07±0.1 vs. 3.16±0.16 ml/24 h/mouse, n=5) treatment affected water intake. Likewise, there was no significant change of body weight among water (24±1.63 g/mouse, n=5), vehicle (23.8±1.1 g/mouse, n=5), and rofecoxib (24.5±1.0 g/mouse, n=5) group.

[9] = system: MC38 tumor mice subjected to thromboembolic stroke; experiment: Thromboembolic ischemic stroke in MC38 tumor mice: neurovascular injury and functional outcome; type: in vivo, mouse
Excerpt: Age-matched non-tumor mice were usedas control. At the end of the treatment period, mice were subjected to thromboembolic stroke. Under isoflurane anesthesia, the right common carotid artery, the right external carotid artery (ECA), and the right internal carotid artery were exposed through a middle incision on the ventral side of the neck. A PE 10 catheter containing a fibrin-rich clot was gently inserted from the ECA stump into the distal internal carotid artery just proximal to the origin of the middle cerebral artery (MCA). Each clot (˜1 cm), prepared from a donor mouse, was injected with 75 μl of sterile PBS; after 2 min, the catheter was withdrawn as described previously (Hoda, et al., Exp Transl Stroke Med 3:16 (2011)). Occlusion was confirmed by a ≧70% drop in cerebral blood flow as compared to the pre-ischemic value. The success rate of thromboembolic MCA occlusion was 95% based on changes in cerebral blood flow. At day 3 after surgery, mice were first evaluated for functional outcome, then sacrificed for evaluation of neurovascular injury including infarct size and bleeding. Extracted brains were analyzed for infarct size in coronal slices of 2 mm thickness, labeled A-G, front to back. Hemorrhagic transformation (HT), secondary bleeding into the brain after ischemic stroke was evaluated by the presence of visible macroscopic bleeding and measured in a binary fashion: yes or no. Number of animals that had HT was reported per group. 2, 3, 5-Triphenyltetrazolium chloride (TTC), a mitochondria stain, was used to outline the infarct area. The captured images were numerically labeled and analyzed using specialized KS300 software. Infarct size was expressed as a percentage of the contralateral hemisphere. Neurologic deficits in mice given different treatments were assessed at 24 h and 72 h after stroke, using a 5-point scale for scoring: 0, no deficit; 1, forelimb flexion deficit on contralateral side; 2, decreased resistance to lateral push and torso turning to the ipsilateral side when held by tail; 3, significant circling to the affected side and reduced capability to bear weight on the affected side; 4, rarely moved spontaneously and preferred to stay at rest.

[10] = system: PGE2 production in MC38 cells; experiment: PGE2 production in MC38 cells (PGE2 ELISA); type: cell-based, mouse; conditions: dose response; FIG. 2C
Description: as §1, §2

Row | SMILES | Plasma 20-HETE levels [1] | Plasma levels of EETs/DHETs, 5-HETE, 8-HETE, 11-HETE, 15-HETE [1] | Plasma PGJ2, PGE2, TXB2 and 15 keto-PGE2 levels ([1]; HET0016 5 mg/kg/day i.p., FIG. 6B) | MC38 cell growth (cell number/well) [2] | 20-HETE production and secretion in MC38 cell media [3] | BrdU incorporation into MC38 cells ([4]; 100 nM to 10 μM, serum-free medium + EGF 200 ng/ml, FIG. 4A) | Tumor size on day 9 post implantation [5] | Tumor size on day 18 post-implantation [5] | Infarct size after ischemic stroke ([6]; FIG. 10A) | Neurological deficits after ischemic stroke ([6]; FIG. 10B) | cyp4a expression in the liver and kidney [7] | Body weight [8] [g/mouse] | Water intake ([8]; water group 3.16±0.16) [ml/24 h/mouse] | Mortality after ischemic stroke ([9]; 3 weeks treatment, rofecoxib 50 mg/l, HET0016 5 mg/kg/day i.p.) [%] | Animals that developed HT ([9]; C57BL/6J, mouse, in vivo, 3 weeks) | Functional outcome (neurological deficit score) ([9]; mouse, in vivo) | Infarct size ([9]; rofecoxib compared to control mice, combination compared to rofecoxib, FIG. 8B) | BrdU incorporation into MC38 cells at 1 μM ([4]; 1 μM (combination 1 μM each, compared with rofecoxib alone), FIG. 4B/4C) | PGE2 production in MC38 cells [10]
1 | CCCCc1ccc(N=CNO)c(C)c1 [HET0016, N-Hydroxy-N′-(4-butyl-2-methylphenyl)formamidine] | selectively reduced plasma 20-HETE levels | without affecting | did not affect | inhibited cell growth | effectively blocked 20-HETE production and secretion | inhibited the incorporation of BrdU in a concentration dependent manner | did not affect tumor size | dose-dependently reduced tumor size | – | – | – | – | – | – | – | – | – | – | –
2 | O=C(O)CCC/C=C\C[C@H]1C(=O)C[C@@H](O)[C@@H]1/C=C/[C@@H](O)CCCCCO [20-OH PGE2] | – | – | – | – | – | – | – | – | reduced | reduced | – | – | – | – | – | – | – | – | –
3 | CS(=O)(=O)c1ccc(C2=C(c3ccccc3)C(=O)OC2)cc1 [rofecoxib] | selectively increased 20-HETE plasma levels | no significant changes | – | inhibited cell growth | – | – | significantly reduced tumor size | significantly reduced tumor size | – | – | had no effect on cyp4a expression | 24.5±1.0 | 3.07±0.1 | ~30 | 4 out of the 5 | neurological deficit scores were higher | reduced the size of infarcts | significantly inhibited BrdU incorporation | dose-dependently inhibited PGE2 production

— patent publication US9480664B2, “Compositions and methods for treating cancer” (Augusta University Research Institute, Inc., priority 2014, dated 2016)
